We go through 2 substances from PMC12649575, “Assessment of Polymyxin B with Sodium Deoxycholate Sulfate Micelles in a Rat Model to Combat Polymyxin Nephrotoxicity” (Antibiotics, 2025).

The test system of data set [1] is male Sprague-Dawley rats. Put plainly: Serum oxidative stress biomarkers SOD and CAT after 7 days of treatment. In kind it is in vivo. The following applies: rat serum, after 7 days of 6 mg/kg/day s.c., commercial kit, mean ± SD, n = 5; for Serum catalase (CAT) level: control 22.4 ± 3.79; for Serum superoxide dismutase (SOD) level: normal saline 37.36 ± 3.4. On the procedure:
The serum levels of superoxide dismutase (SOD) and Catalase (CAT) in rats were analyzed to evaluate and compare the oxidative stress induced by the treatments. […] No significant reductions were detected in the serum SOD levels of the SDCS (38 ± 3.17 U/mL) and formulation (34.73 ± 5.17 U/mL) groups. […] The serum CAT levels in the treated rats followed a trend similar to that observed for the SOD levels (Figure 2D).
(§1) The nephrotoxicity experiment of the PMB formulation was performed on 36 male rats that were randomly divided into four groups (n = 9). Randomization was performed using computer-generated random sequences in Microsoft Excel with a fixed seed value to ensure reproducibility. Block randomization was used to balance the number of animals per group. […] The PMB dose of 6 mg/kg/day (expressed as PMB equivalent) was selected based on previous pharmacokinetic and toxicity studies in rats, where this dose consistently produced measurable nephrotoxicity without lethality. […] The average weight gain of each group was recorded for the experiment. We randomized the treatment order and controlled the timing of measurements, and all researchers involved in the study were blinded to the intervention. The animals were euthanized 24 h after the last treatment with an intraperitoneal lethal dose of sodium pentobarbital (200 mg/kg). Blood samples were collected by cardiac puncture, and the serum was separated by centrifugation (3000× g for 15 min) and stored at −80 °C until assayed. Samples of the kidney, liver, spleen, lung, and heart tissues were carefully collected, weighed, and sectioned for histopathological analysis. Histological observation was performed to assess potential tissue damage and evaluate the extent of toxicity following the treatment.
(§2) The serum levels of SOD and CAT were measured after the 7-day treatment period to investigate the oxidative properties of the treatments. The measurements were carried out using commercial kits according to the manufacturer’s instructions.

The test system of data set [2] is rat kidney, liver, lung and spleen tissue. Kind of data set: Histopathological examination (H&E) of kidney, liver, lung and spleen. In kind it is in vivo. The following applies: 7 days of 6 mg/kg/day s.c., result in words. Here is the method: An H&E assay was performed on the collected tissues of all animals to evaluate PMB-induced nephrotoxicity and organ damage. The kidney histopathological results from the H&E assay of the renal cortex and medulla in the treated animals are shown in Figure 3.
Liver histopathological alterations in the central vein area and portal triad area of the treated rats are shown in Figure 4A and Figure 4B, respectively.
Histopathological alterations in the spleen tissue of the treated animals were also examined (Figure 4D).
as §1
Excess fat from the kidney, liver, spleen, lung, and heart tissues was removed through dissection and trimming. All samples were preserved in 10% buffered formalin using a fixative volume at least 10 times the tissue volume for three days. Subsequently, the tissues were dehydrated through a graded series of ethanol (70%, 80%, 95%, and 100%) using a tissue processor (LEICA TP 1020, Leica Microsystems GmbH, Wetzlar, Germany), with each concentration step lasting for 60 min. Following this, the tissues were embedded in Paraplast blocks using a tissue embedder (LEICA EG 1160, Leica Microsystems GmbH, Wetzlar, Germany). Thin sections that measured 5 μm in thickness were obtained using an automatic microtome. The slides were stained with Harris’ hematoxylin and eosin (H&E) and examined under an Olympus DP73 microscope (Olympus, Tokyo, Japan) equipped with cellSens software version 6.1.4.2. Histopathological analysis was performed by an investigator who was blinded to the treatment groups.

For the next data set, the system named is rat kidney function. Kind of data set: Kidney function: serum BUN and creatinine after 7 days of treatment. In kind it is in vivo. The following applies: after 7 days of 6 mg/kg/day s.c., autoanalyzer, mean ± SD; for Serum creatinine (Cr): n = 5, normal saline 2.08 ± 1.08; for Serum blood urea nitrogen (BUN): n = 5, normal saline 13.8 ± 1.3. Here is the method: After seven days of treatment, the serum levels of blood urea nitrogen (BUN) and Cr were assessed in the rats to investigate their kidney function. […] The PMB group had slightly elevated Cr levels (2.28 ± 0.31 mg/dL) (Figure 2B).
as §1, §2

Data set [3] is described as follows: PMB biodistribution in organs 24 h after subcutaneous dose (LC-MS). In kind it is in vivo. The following applies: rat, 6 mg/kg s.c., kidney homogenate 24 h post-dose, mean ± SD, n = 4.
Excerpt: (§3) The serum concentrations reported represent the free (unbound) PMB fraction determined after protein precipitation and filtration, which is the pharmacologically active component.
(§4) For the biodistribution study, a sample size of four rats per group was chosen as a preliminary exploratory analysis to determine major organ distribution trends. This sample size was consistent with previous biodistribution studies involving polymyxins and sufficient to identify statistically meaningful differences in renal accumulation [7]. […] PMB concentrations were measured in LC-MS for free (unbound) fraction of serum and tissue homogenates after protein precipitation.
(§5) The PMB was quantified using an LC-MS/ion trap time-of-flight system (Shimadzu, Tokyo, Japan) equipped with a C18 column (2.1 mm id × 150 mm, 2.7 µm particle size; Thermo Fisher Scientific, Scoresby, Australia). […] A quantity of 400 µL of supernatant was added to 600 µL of the mobile phase. A known amount of standard PMB in blank serum was prepared using the same method to produce a calibration curve of PMB and quantification was performed using colistin sulfate (1 µg/mL) as the internal standard. The monitored mass transitions were m/z 602.4 → 101.1 for PMB and m/z 585.5 → 101.1 for colistin. […]
Data set [4] can be described thus: PMB serum concentration after a single subcutaneous dose (LC-MS). Format: in vivo. The settings on record: rat, single 6 mg/kg s.c., 4 h post-dose, PMB after protein precipitation, mean ± SD, n = 4.
Excerpt: as §3, §4, §5
The conditions of data set [5]: cited from earlier work. The text has this: Nephrotoxicity remains a significant challenge for PMB. The prevalence of nephrotoxicity ranges from 10% to 60% despite the effectiveness of PMB in treating multidrug-resistant Gram-negative bacterial infections. The amphipathic properties of polymyxins are also responsible for their nephrotoxicity where the cationic diaminobutyric acid (Dab) residues of PMB interact with anionic phospholipids (e.g., phosphatidylinositol, cardiolipin) on the membranes of renal tubular cells. This electrostatic interaction, combined with the insertion of the lipophilic tail into the lipid bilayer, dis ... || PMB undergoes extensive reabsorption in the renal tubule, and a very high concentration of PMB is found in human renal tubular cells compared to the extracellular concentration. The increased accumulation of PMB leads to cell swelling and lysis by disrupting the permeability of the renal tubular epithelial cell membrane. In our results, the administration of the PMB formulation increased the serum concentration profile of PMB.

Data set [6] has as its system male Sprague-Dawley rats. Put plainly: Body weight and body weight gain in the 7-day nephrotoxicity study. In kind it is in vivo. The following applies: rat. On the procedure: After seven days of treatment with 6 mg/kg of the PMB and PMB formulation, the weight progression of the rats in each group was measured and recorded. All 36 rats successfully acclimated and reached the target body weight of 110 g within the 7-day period. No animals were excluded from the study. The results in Figure 1A show the weight changes measured on day 0, day 4, and day 7 of administration.
The animal study was approved by the Animal Ethics Committee of Prince of Songkla University (Project License No. MHESI 68014/675, Ref. AR042/2024). The animals were housed in a controlled environment with a temperature of 22 ± 2 °C, relative humidity of 50 ± 10%, and a 12/12-h light/dark cycle. They were provided with a standard laboratory rodent diet and water ad libitum. The study was conducted on male outbred Sprague-Dawley rats (5–7 weeks old, 130–170 g) that were obtained from the National Laboratory Animal Center, Mahidol University, Nakorn Pathom, Thailand. The rats were fed the standard feed protocol by the Southern Laboratory Animal Facility, Faculty of Sciences, Prince of Songkla University. Rats were allowed to acclimate for 7 days prior to the experiment.
as §1, with “Blood samples were collected by cardiac puncture, and the serum was separated by centrifugation (3000× g for 15 min) and stored at −80 °C until assayed. Samples of the kidney, liver, spleen, lung, and heart tissues were carefully collected, weighed, and sectioned for histopathological analysis. Histological observation was performed to assess potential tissue damage and evaluate the extent of toxicity following the treatment.” left out

For the substance Sodium Deoxycholate sulfate [SDCS], in the data set with male Sprague-Dawley rats [1], the “Serum catalase (CAT) level” value is on record as 22.25 ± 6.38 nmol/min/mL and the “Serum superoxide dismutase (SOD) level” value stood at 38 ± 3.17 U/mL. For the same substance, in data set [2], the “Kidney histopathology (renal cortex and medulla)” value is given as “normal”; the “Liver histopathology (central vein and portal triad area)” value is recorded as “normal hepatic tissues”; the Lung histopathology entry is recorded as “normal lung tissue”; the Spleen histopathology entry was “normal white and red pulp”. Moreover, in the data set with rat kidney function, the “Serum creatinine (Cr)” value is 2.06 ± 0.32 mg/dL and the “Serum blood urea nitrogen (BUN)” value stood at 14.4 ± 2.07 mg/dL.

For the substance Polymyxin B [PMB], in the data set on male Sprague-Dawley rats [1], the “Serum catalase (CAT) level” value is reported as 9.5 ± 7.91 nmol/min/mL and the “Serum superoxide dismutase (SOD) level” value was 22.87 ± 8.1 U/mL. In addition, in data set [2], the “Kidney histopathology (renal cortex and medulla)” value was “Deformation of the glomeruli and congestion of the renal blood vessels”; the “Liver histopathology (central vein and portal triad area)” value was “significant monocyte infiltration accompanied by loss of hepatocyte architecture and the presence of necrotic foci around the blood vessels”; the Lung histopathology entry is recorded as “endothelial damage that was evidenced by an increased number of small pulmonary venules containing fibrin thrombi”; the Spleen histopathology result is recorded as “numerous multinucleated giant cells”. Further, the “PMB concentration in the kidneys after 24 h” value in data set [3] is listed as 3.73 ± 0.89 µg/g. In addition, in the data set on rat kidney function, the “Serum creatinine (Cr)” value is 2.28 ± 0.31 mg/dL and the “Serum blood urea nitrogen (BUN)” value is given as 16.56 ± 1.59 mg/dL. Besides, the “PMB serum concentration at 4 h” value in data set [4] is 2.94 ± 0.23 µg/mL. Moreover, the Urinary recovery in data set [5] (animal models) is given as less than 5%. Further, the “PMB kidney/serum concentration ratio” value in data set [5] (another study) was 18 fold. Also, the “Body weight gain compared with control” value with male Sprague-Dawley rats [6] (6 mg/kg/day s.c. for 7 days, n = 9, result in words) is reported as “significant reduction in body weight gain”. Besides, in the data set on male Sprague-Dawley rats [6] (6 mg/kg/day s.c., day 4 of 7, mean ± SD, n = 9, normal saline group 180.0 ± 11.83 g), the “Body weight on day 4” value is 163.89 ± 15.37 g. Besides, in the data set with male Sprague-Dawley rats [6] (6 mg/kg/day s.c., day 7, mean ± SD, n = 9, normal saline group 207.5 ± 11.62 g), the “Body weight on day 7” value was determined as 191.67 ± 15.83 g.
